{"source": "PubChem BioAssay AID1963967", "about": "(Molecular Pharmacology Branch, DTP, NCI, 2024);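 also: agents incubated with spheroids for one week before read-out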;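 as to viability, T/C: 100% = DMSO vehicle-treated control wells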", "tested_on": "855422-203-R-J1-PDC spheroids with HUVEC/MSC, viability", "experiment": "Anticancer human tumor 855422-203-R-J1-PDC patient-derived bladder carcinoma cell line growth inhibition [PI3K]", "conditions": "for IC50: curve of first compound; for viability, T/C: stronger effect = lower value", "in_short": "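Viability of mixed-cell spheroids was determined after exposure to pairwise combinations, one partner being inavolisib, alpelisib, duvelisib or copanlisib. Highest tested concentration matched clinical Cmax where known and 10 microM where not, descending in half-log steps.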", "key": {"[1]": {"conditions": "second compound 0.0316 µM, first compound 0.0316 µM"}, "[2]": {"conditions": "second compound 0.0316 µM, first compound 0.1 µM"}, "[3]": {"conditions": "second compound 0.1 µM, first compound 0.0316 µM"}, "[4]": {"conditions": "second compound 0.1 µM, first compound 0.1 µM"}, "[5]": {"conditions": "second compound 0.316 µM, first compound 0.0316 µM"}, "[6]": {"conditions": "second compound 0.316 µM, first compound 0.1 µM"}, "[7]": {"conditions": "second compound 1 µM, first compound 0.0316 µM"}, "[8]": {"conditions": "second compound 1 µM, first compound 0.1 µM"}, "[9]": {"conditions": "second compound 3.16 µM, first compound 0.0316 µM"}, "[10]": {"conditions": "second compound 3.16 µM, first compound 0.1 µM"}, "[11]": {"conditions": "second compound 10 µM, first compound 0.0316 µM"}, "[12]": {"conditions": "second compound 10 µM, first compound 0.1 µM"}}, "data": [{"smiles": "CC(C)n1nc(-c2ccc3oc(N)nc3c2)c2c(N)ncnc21", "note": "+ Cc1nc(NC(=O)N2CCCC2C(N)=O)sc1-c1ccnc(C(C)(C)C(F)(F)F)c1", "values": [{"measurement": "IC50", "setting": "second compound 0.0316 µM", "result": 49.5, "unit": "nM"}, {"measurement": "IC50", "setting": "second compound 0.1 µM", "result": 42.8, "unit": "nM"}, {"measurement": "IC50", "setting": "second compound 0.316 µM", "result": 33.1, "unit": "nM"}, {"measurement": "IC50", "setting": "second compound 1 µM", "result": 11.1, "unit": "nM"}, {"measurement": "IC50", "setting": "second compound 3.16 µM", "result": "< 0.316", "unit": "nM"}, {"measurement": "IC50", "setting": "second compound 10 µM", "result": "< 0.316", "unit": "nM"}, {"measurement": "viability, T/C", "setting": "second compound 0.0316 µM, first compound 0.000316 µM", "result": 85.8, "unit": "%"}, {"measurement": "viability, T/C", "setting": "second compound 0.0316 µM, first compound 0.001 µM", "result": 86.9, "unit": "%"}, {"measurement": "viability, T/C", "setting": "second compound 0.0316 µM, first compound 0.00316 µM", "result": 106, "unit": "%"}, {"measurement": "viability, T/C", "setting": "second compound 0.0316 µM, first compound 0.01 µM", "result": 87.6, "unit": "%"}, {"measurement": "viability, T/C", "setting": "[1]", "result": 70.7, "unit": "%"}, {"measurement": "viability, T/C", "setting": "[2]", "result": 17.8, "unit": "%"}, {"measurement": "viability, T/C", "setting": "second compound 0.1 µM, first compound 0.000316 µM", "result": 105, "unit": "%"}, {"measurement": "viability, T/C", "setting": "second compound 0.1 µM, first compound 0.001 µM", "result": 88.5, "unit": "%"}, {"measurement": "viability, T/C", "setting": "second compound 0.1 µM, first compound 0.00316 µM", "result": 97.2, "unit": "%"}, {"measurement": "viability, T/C", "setting": "second compound 0.1 µM, first compound 0.01 µM", "result": 82.8, "unit": "%"}, {"measurement": "viability, T/C", "setting": "[3]", "result": 63.6, "unit": "%"}, {"measurement": "viability, T/C", "setting": "[4]", "result": 14.7, "unit": "%"}, {"measurement": "viability, T/C", "setting": "second compound 0.316 µM, first compound 0.000316 µM", "result": 68.4, "unit": "%"}, {"measurement": "viability, T/C", "setting": "second compound 0.316 µM, first compound 0.001 µM", "result": 87.6, "unit": "%"}, {"measurement": "viability, T/C", "setting": "second compound 0.316 µM, first compound 0.00316 µM", "result": 87.4, "unit": "%"}, {"measurement": "viability, T/C", "setting": "second compound 0.316 µM, first compound 0.01 µM", "result": 75.1, "unit": "%"}, {"measurement": "viability, T/C", "setting": "[5]", "result": 51.8, "unit": "%"}, {"measurement": "viability, T/C", "setting": "[6]", "result": 12.3, "unit": "%"}, {"measurement": "viability, T/C", "setting": "second compound 1 µM, first compound 0.000316 µM", "result": 67.5, "unit": "%"}, {"measurement": "viability, T/C", "setting": "second compound 1 µM, first compound 0.001 µM", "result": 66.9, "unit": "%"}, {"measurement": "viability, T/C", "setting": "second compound 1 µM, first compound 0.00316 µM", "result": 55.9, "unit": "%"}, {"measurement": "viability, T/C", "setting": "second compound 1 µM, first compound 0.01 µM", "result": 51.4, "unit": "%"}, {"measurement": "viability, T/C", "setting": "[7]", "result": 37.8, "unit": "%"}, {"measurement": "viability, T/C", "setting": "[8]", "result": 8.4, "unit": "%"}, {"measurement": "viability, T/C", "setting": "second compound 3.16 µM, first compound 0.000316 µM", "result": 42.5, "unit": "%"}, {"measurement": "viability, T/C", "setting": "second compound 3.16 µM, first compound 0.001 µM", "result": 44.7, "unit": "%"}, {"measurement": "viability, T/C", "setting": "second compound 3.16 µM, first compound 0.00316 µM", "result": 35.8, "unit": "%"}, {"measurement": "viability, T/C", "setting": "second compound 3.16 µM, first compound 0.01 µM", "result": 34.1, "unit": "%"}, {"measurement": "viability, T/C", "setting": "[9]", "result": 20.5, "unit": "%"}, {"measurement": "viability, T/C", "setting": "[10]", "result": 5.68, "unit": "%"}, {"measurement": "viability, T/C", "setting": "second compound 10 µM, first compound 0.000316 µM", "result": 22.9, "unit": "%"}, {"measurement": "viability, T/C", "setting": "second compound 10 µM, first compound 0.001 µM", "result": 19.3, "unit": "%"}, {"measurement": "viability, T/C", "setting": "second compound 10 µM, first compound 0.00316 µM", "result": 20.3, "unit": "%"}, {"measurement": "viability, T/C", "setting": "second compound 10 µM, first compound 0.01 µM", "result": 16.2, "unit": "%"}, {"measurement": "viability, T/C", "setting": "[11]", "result": 11.9, "unit": "%"}, {"measurement": "viability, T/C", "setting": "[12]", "result": 3.12, "unit": "%"}]}, {"smiles": "CC1(C)CCC(CN2CCN(c3ccc(C(=O)NS(=O)(=O)c4ccc(NCC5CCOCC5)c([N+](=O)[O-])c4)c(Oc4cnc5[nH]ccc5c4)c3)CC2)=C(c2ccc(Cl)cc2)C1", "note": "+ Cc1nc(NC(=O)N2CCCC2C(N)=O)sc1-c1ccnc(C(C)(C)C(F)(F)F)c1", "values": [{"measurement": "IC50", "setting": "second compound 0.0316 µM", "result": 4570, "unit": "nM"}, {"measurement": "IC50", "setting": "second compound 0.1 µM", "result": 4940, "unit": "nM"}, {"measurement": "IC50", "setting": "second compound 0.316 µM", "result": 5260, "unit": "nM"}, {"measurement": "IC50", "setting": "second compound 1 µM", "result": 4580, "unit": "nM"}, {"measurement": "IC50", "setting": "second compound 3.16 µM", "result": "< 31.6", "unit": "nM"}, {"measurement": "IC50", "setting": "second compound 10 µM", "result": "< 31.6", "unit": "nM"}, {"measurement": "viability, T/C", "setting": "[1]", "result": 105, "unit": "%"}, {"measurement": "viability, T/C", "setting": "[2]", "result": 89.9, "unit": "%"}, {"measurement": "viability, T/C", "setting": "second compound 0.0316 µM, first compound 0.316 µM", "result": 112, "unit": "%"}, {"measurement": "viability, T/C", "setting": "second compound 0.0316 µM, first compound 1 µM", "result": 100, "unit": "%"}, {"measurement": "viability, T/C", "setting": "second compound 0.0316 µM, first compound 3.16 µM", "result": 72.8, "unit": "%"}, {"measurement": "viability, T/C", "setting": "second compound 0.0316 µM, first compound 10 µM", "result": 1.55, "unit": "%"}, {"measurement": "viability, T/C", "setting": "[3]", "result": 99.8, "unit": "%"}, {"measurement": "viability, T/C", "setting": "[4]", "result": 87.4, "unit": "%"}, {"measurement": "viability, T/C", "setting": "second compound 0.1 µM, first compound 0.316 µM", "result": 101, "unit": "%"}, {"measurement": "viability, T/C", "setting": "second compound 0.1 µM, first compound 1 µM", "result": 102, "unit": "%"}, {"measurement": "viability, T/C", "setting": "second compound 0.1 µM, first compound 3.16 µM", "result": 80.6, "unit": "%"}, {"measurement": "viability, T/C", "setting": "second compound 0.1 µM, first compound 10 µM", "result": 1.52, "unit": "%"}, {"measurement": "viability, T/C", "setting": "[5]", "result": 89.8, "unit": "%"}, {"measurement": "viability, T/C", "setting": "[6]", "result": 91.8, "unit": "%"}, {"measurement": "viability, T/C", "setting": "second compound 0.316 µM, first compound 0.316 µM", "result": 95.3, "unit": "%"}, {"measurement": "viability, T/C", "setting": "second compound 0.316 µM, first compound 1 µM", "result": 92.1, "unit": "%"}, {"measurement": "viability, T/C", "setting": "second compound 0.316 µM, first compound 3.16 µM", "result": 88.6, "unit": "%"}, {"measurement": "viability, T/C", "setting": "second compound 0.316 µM, first compound 10 µM", "result": 1.39, "unit": "%"}, {"measurement": "viability, T/C", "setting": "[7]", "result": 76.8, "unit": "%"}, {"measurement": "viability, T/C", "setting": "[8]", "result": 77, "unit": "%"}, {"measurement": "viability, T/C", "setting": "second compound 1 µM, first compound 0.316 µM", "result": 69.5, "unit": "%"}, {"measurement": "viability, T/C", "setting": "second compound 1 µM, first compound 1 µM", "result": 81, "unit": "%"}, {"measurement": "viability, T/C", "setting": "second compound 1 µM, first compound 3.16 µM", "result": 73.3, "unit": "%"}, {"measurement": "viability, T/C", "setting": "second compound 1 µM, first compound 10 µM", "result": 0.91, "unit": "%"}, {"measurement": "viability, T/C", "setting": "[9]", "result": 47.7, "unit": "%"}, {"measurement": "viability, T/C", "setting": "[10]", "result": 45.5, "unit": "%"}, {"measurement": "viability, T/C", "setting": "second compound 3.16 µM, first compound 0.316 µM", "result": 42.7, "unit": "%"}, {"measurement": "viability, T/C", "setting": "second compound 3.16 µM, first compound 1 µM", "result": 49, "unit": "%"}, {"measurement": "viability, T/C", "setting": "second compound 3.16 µM, first compound 3.16 µM", "result": 47, "unit": "%"}, {"measurement": "viability, T/C", "setting": "second compound 3.16 µM, first compound 10 µM", "result": 0.59, "unit": "%"}, {"measurement": "viability, T/C", "setting": "[11]", "result": 25.8, "unit": "%"}, {"measurement": "viability, T/C", "setting": "[12]", "result": 23.5, "unit": "%"}, {"measurement": "viability, T/C", "setting": "second compound 10 µM, first compound 0.316 µM", "result": 25.7, "unit": "%"}, {"measurement": "viability, T/C", "setting": "second compound 10 µM, first compound 1 µM", "result": 29.4, "unit": "%"}, {"measurement": "viability, T/C", "setting": "second compound 10 µM, first compound 3.16 µM", "result": 24.7, "unit": "%"}, {"measurement": "viability, T/C", "setting": "second compound 10 µM, first compound 10 µM", "result": 0.6, "unit": "%"}]}]}
